The values below come from ChEMBL document CHEMBL1821657, “Tritoniopsins A-D, cladiellane-based diterpenes from the South China Sea nudibranch Tritoniopsis elegans and its prey Cladiella krempfi” (J Nat Prod, 2011).

In one assay the test system is 3T3-L1. Put plainly: Cytotoxicity against mouse 3T3L1 cells assessed as cell growth inhibition after 48 hrs. The assay is classed as cell-based. The conditions noted are these: 3T3-L1, 48 h.
A further assay relates to C6. In words: Cytotoxicity against rat C6 cells assessed as cell growth inhibition after 48 hrs. The class given is functional, cell-based.
In a further assay the test system is HeLa. In words: Cytotoxicity against human HeLa cells assessed as cell growth inhibition after 48 hrs. The class given is functional, cell-based.
The test system of a further assay is Caco-2. In words: Cytotoxicity against human Caco2 cells assessed as cell growth inhibition after 48 hrs. The assay is classed as functional, cell-based. Particulars: Caco-2, 48 h.
The next assay has as its system H9c2. In words: Cytotoxicity against rat H9c2 cells assessed as cell growth inhibition after 48 hrs. The conditions noted are these: H9c2, 48 h. The assay is classed as cell-based.

Calls of active or inactive are those of the source. The rule behind the calls is not given here.

As usually defined, the IC50 is the point on the concentration scale where inhibition reaches its midpoint. On to `C=C1C[C@H]2O[C@H]([C@@H]3[C@@H]4C[C@@H](OC[C@@H]4C)[C@](C)(O)[C@@H]32)[C@](C)(OC(=O)CCC)CC[C@@H]1OO` [TRITONIOPSIN B], for which the IC50 with 3T3-L1, in the assay on Caco-2 and with H9c2 was 40 µM in each case. The “growth inhibition (GI)” value in the assay on C6 and with HeLa was “inactive” throughout.
